Experimental data: the kinase profiling compilation of Christmann-Franck et al. (2016)

What was measured:
Experiment in all cases: KINOMEscan competition binding
Settings in all cases: compound 10.0 µM
EPHA3 (human) = EPHA3 (human) (UniProt P29320)
CAMK2G (human) = CAMK2G (human) (UniProt Q13555)
FGR (human) = FGR (human) (UniProt P09769)
INSRR (human) = INSRR (human) (UniProt P14616)
AKT3 (human) = AKT3 (human) (UniProt Q9Y243)
IRAK4 (human) = IRAK4 (human) (UniProt Q9NWZ3)
AXL (human) = AXL (human) (UniProt P30530)
MAK (human) = MAK (human) (UniProt P20794)
STK11 (human) = STK11 (human) (UniProt Q15831)
[1] = system: PIK3CA (human), P42336 [H1047L]
SIK2 (human) = SIK2 (human) (UniProt Q9H0K1)
ROS1 (human) = ROS1 (human) (UniProt P08922)
PLK2 (human) = PLK2 (human) (UniProt Q9NYY3)
PIP5K1C (human) = PIP5K1C (human) (UniProt O60331)
PAK7 (human) = PAK7 (human) (UniProt Q9P286)
FGFR1 (human) = FGFR1 (human) (UniProt P11362)
RET (human) = RET (human) (UniProt P07949)
[2] = system: KIT (human), P10721 [V559D/V654A]
STK10 (human) = STK10 (human) (UniProt O94804)
PRPF4B (human) = PRPF4B (human) (UniProt Q13523)
GAK (human) = GAK (human) (UniProt O14976)
FLT3 (human) = FLT3 (human) (UniProt P36888)
TEC (human) = TEC (human) (UniProt P42680)
IRAK1 (human) = IRAK1 (human) (UniProt P51617)
MAPKAPK5 (human) = MAPKAPK5 (human) (UniProt Q8IW41)
CASK (human) = CASK (human) (UniProt O14936)
PKN2 (human) = PKN2 (human) (UniProt Q16513)
MAPK13 (human) = MAPK13 (human) (UniProt O15264)
MAP3K9 (human) = MAP3K9 (human) (UniProt P80192)
CHEK1 (human) = CHEK1 (human) (UniProt O14757)
EPHB2 (human) = EPHB2 (human) (UniProt P29323)
DCLK3 (human) = DCLK3 (human) (UniProt Q9C098)
ULK3 (human) = ULK3 (human) (UniProt Q6PHR2)
VRK2 (human) = VRK2 (human) (UniProt Q86Y07)
ULK2 (human) = ULK2 (human) (UniProt Q8IYT8)
PRKCQ (human) = PRKCQ (human) (UniProt Q04759)
MTOR (human) = MTOR (human) (UniProt P42345)
CAMK2D (human) = CAMK2D (human) (UniProt Q13557)
[3] = system: PIK3CA (human), P42336 [C420R]
BRSK2 (human) = BRSK2 (human) (UniProt Q8IWQ3)
STK36 (human) = STK36 (human) (UniProt Q9NRP7)
Sequence of STK36 (human) (Q9NRP7 whole entry, looked up): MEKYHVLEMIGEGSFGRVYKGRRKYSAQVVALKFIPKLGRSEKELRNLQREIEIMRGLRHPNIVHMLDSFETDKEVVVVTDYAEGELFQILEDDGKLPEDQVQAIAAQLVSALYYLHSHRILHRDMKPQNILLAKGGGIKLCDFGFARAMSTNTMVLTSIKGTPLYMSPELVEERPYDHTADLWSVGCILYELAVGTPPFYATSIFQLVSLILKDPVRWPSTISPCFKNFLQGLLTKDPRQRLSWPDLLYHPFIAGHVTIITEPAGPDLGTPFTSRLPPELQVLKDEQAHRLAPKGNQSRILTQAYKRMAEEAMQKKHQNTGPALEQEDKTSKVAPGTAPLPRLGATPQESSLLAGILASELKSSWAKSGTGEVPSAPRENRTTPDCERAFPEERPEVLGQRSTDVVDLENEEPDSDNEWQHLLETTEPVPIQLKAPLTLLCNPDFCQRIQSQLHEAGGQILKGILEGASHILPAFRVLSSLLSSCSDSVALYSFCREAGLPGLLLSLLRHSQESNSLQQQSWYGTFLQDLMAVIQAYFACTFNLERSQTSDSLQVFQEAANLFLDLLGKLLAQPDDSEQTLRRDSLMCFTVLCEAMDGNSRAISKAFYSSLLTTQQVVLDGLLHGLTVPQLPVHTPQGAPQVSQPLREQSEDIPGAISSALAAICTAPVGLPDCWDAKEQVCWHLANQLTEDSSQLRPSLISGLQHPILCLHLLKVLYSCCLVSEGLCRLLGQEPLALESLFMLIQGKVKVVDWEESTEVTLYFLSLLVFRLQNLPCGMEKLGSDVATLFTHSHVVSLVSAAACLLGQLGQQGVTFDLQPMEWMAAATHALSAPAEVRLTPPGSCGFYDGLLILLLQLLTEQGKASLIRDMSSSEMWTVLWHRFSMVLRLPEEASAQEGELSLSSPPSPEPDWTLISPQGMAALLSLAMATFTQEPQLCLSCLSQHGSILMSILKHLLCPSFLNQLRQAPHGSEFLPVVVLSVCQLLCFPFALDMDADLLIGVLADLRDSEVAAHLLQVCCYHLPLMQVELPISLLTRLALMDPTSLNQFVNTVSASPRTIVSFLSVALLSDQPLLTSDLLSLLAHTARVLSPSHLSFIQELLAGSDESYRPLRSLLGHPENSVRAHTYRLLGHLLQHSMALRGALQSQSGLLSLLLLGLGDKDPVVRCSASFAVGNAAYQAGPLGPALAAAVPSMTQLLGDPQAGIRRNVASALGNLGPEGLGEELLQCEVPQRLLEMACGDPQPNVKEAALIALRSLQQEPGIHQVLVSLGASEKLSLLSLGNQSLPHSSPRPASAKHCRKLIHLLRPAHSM

Sequence of RET (human) (P07949 whole entry, looked up): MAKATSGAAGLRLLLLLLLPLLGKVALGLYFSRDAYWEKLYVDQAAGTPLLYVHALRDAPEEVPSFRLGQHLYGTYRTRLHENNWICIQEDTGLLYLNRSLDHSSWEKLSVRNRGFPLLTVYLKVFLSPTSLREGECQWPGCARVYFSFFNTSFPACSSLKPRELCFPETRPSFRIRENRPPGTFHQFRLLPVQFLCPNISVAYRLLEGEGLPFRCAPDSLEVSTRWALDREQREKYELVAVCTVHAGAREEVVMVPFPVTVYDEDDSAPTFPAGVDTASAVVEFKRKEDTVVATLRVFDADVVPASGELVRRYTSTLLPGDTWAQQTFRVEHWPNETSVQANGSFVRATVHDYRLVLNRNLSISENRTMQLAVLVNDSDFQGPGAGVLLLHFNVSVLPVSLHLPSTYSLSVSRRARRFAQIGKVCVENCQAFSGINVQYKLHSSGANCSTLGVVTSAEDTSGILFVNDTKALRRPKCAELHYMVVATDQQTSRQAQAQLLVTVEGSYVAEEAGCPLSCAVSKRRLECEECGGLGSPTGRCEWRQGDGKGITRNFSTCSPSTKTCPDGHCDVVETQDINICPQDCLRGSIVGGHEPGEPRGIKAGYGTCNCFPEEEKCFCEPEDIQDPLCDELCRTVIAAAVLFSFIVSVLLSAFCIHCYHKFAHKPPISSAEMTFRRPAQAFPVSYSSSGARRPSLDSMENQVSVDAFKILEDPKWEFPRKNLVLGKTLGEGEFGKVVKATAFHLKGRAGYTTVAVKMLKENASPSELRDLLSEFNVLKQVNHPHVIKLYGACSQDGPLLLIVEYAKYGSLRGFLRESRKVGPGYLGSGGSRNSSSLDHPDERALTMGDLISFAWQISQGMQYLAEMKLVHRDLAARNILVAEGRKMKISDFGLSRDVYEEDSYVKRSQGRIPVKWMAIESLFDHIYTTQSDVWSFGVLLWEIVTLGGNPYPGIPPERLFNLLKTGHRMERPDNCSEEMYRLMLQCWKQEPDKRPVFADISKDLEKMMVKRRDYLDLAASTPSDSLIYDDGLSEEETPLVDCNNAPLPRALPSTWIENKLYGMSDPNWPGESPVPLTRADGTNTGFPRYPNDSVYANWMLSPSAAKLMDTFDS
Sequence of ULK3 (human) (Q6PHR2 whole entry, looked up): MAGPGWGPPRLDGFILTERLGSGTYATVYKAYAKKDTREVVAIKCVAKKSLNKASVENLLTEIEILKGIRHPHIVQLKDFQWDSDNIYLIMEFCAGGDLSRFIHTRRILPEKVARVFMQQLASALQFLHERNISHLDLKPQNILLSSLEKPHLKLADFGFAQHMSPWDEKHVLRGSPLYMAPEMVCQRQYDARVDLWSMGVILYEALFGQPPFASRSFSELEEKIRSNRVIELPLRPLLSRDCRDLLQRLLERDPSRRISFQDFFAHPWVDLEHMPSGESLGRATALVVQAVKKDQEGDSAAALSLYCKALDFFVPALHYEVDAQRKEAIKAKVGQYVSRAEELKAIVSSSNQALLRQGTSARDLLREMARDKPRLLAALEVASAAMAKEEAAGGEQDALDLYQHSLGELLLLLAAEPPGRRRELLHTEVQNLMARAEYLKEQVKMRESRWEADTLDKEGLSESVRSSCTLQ
Sequence of INSRR (human) (P14616 whole entry, looked up): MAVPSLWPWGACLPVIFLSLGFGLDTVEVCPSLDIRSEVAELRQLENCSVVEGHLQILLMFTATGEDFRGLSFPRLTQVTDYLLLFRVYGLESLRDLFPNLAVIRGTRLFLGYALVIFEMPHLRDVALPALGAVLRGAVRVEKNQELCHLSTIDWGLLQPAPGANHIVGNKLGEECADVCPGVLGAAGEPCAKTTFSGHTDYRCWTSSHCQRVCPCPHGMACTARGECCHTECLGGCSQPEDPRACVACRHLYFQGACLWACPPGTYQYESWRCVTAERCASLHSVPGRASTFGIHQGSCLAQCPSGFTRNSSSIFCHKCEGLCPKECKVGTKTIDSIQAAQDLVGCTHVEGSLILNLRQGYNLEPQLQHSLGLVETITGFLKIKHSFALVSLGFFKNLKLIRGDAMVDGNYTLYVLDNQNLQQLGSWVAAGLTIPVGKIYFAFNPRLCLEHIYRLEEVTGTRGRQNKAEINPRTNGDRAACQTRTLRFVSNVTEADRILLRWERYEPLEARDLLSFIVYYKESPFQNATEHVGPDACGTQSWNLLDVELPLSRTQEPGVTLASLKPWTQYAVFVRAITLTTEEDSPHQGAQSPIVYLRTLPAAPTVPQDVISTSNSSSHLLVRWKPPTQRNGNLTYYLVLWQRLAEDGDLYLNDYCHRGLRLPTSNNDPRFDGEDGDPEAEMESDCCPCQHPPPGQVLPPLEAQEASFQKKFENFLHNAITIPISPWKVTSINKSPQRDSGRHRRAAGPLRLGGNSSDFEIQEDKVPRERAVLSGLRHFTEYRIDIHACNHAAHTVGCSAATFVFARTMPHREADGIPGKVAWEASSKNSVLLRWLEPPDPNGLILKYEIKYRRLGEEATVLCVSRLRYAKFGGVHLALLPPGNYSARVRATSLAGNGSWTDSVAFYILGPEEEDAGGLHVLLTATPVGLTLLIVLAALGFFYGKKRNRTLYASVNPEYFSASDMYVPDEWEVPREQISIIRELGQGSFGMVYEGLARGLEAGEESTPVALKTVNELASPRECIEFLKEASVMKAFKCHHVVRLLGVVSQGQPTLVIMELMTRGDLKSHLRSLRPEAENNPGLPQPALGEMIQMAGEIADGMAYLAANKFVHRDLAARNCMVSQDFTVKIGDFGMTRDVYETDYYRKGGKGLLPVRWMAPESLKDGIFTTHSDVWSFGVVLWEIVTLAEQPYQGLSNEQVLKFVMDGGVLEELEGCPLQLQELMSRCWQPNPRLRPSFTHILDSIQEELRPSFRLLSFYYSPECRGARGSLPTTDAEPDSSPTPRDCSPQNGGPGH
Sequence of MAPKAPK5 (human) (Q8IW41 whole entry, looked up): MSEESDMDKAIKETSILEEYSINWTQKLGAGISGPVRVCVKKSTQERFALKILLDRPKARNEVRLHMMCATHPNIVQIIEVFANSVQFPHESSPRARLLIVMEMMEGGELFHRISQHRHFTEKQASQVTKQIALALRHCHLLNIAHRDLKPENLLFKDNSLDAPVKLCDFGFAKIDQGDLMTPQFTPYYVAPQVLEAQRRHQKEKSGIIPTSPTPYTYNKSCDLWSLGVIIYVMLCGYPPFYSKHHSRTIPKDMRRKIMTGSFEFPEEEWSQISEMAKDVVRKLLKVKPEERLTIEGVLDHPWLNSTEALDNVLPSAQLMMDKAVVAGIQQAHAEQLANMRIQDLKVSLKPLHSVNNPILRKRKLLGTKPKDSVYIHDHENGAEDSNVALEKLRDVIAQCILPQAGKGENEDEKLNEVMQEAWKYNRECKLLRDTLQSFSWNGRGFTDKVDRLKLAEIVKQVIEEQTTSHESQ
Sequence of STK11 (human) (Q15831 whole entry, looked up): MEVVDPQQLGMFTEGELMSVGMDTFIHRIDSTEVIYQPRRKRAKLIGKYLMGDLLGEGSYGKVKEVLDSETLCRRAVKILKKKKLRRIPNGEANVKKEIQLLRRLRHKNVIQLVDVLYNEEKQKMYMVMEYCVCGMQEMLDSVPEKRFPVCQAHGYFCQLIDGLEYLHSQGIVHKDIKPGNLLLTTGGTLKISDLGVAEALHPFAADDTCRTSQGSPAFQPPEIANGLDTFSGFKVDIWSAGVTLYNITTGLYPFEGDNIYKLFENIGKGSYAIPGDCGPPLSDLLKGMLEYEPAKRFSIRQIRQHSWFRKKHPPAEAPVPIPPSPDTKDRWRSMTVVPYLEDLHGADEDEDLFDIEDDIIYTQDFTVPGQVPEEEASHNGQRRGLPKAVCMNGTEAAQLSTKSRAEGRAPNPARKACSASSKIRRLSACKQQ

COc1cc(C(=O)N2CCC(N3CCN(C)CC3)CC2)ccc1Nc1ncc2c(n1)N(C)c1ccccc1C(=O)N2C
kinase still bound, per cent of control (EPHA3 (human)): 100%
kinase still bound, per cent of control (CAMK2G (human)): 47%
kinase still bound, per cent of control (FGR (human)): 84%
kinase still bound, per cent of control (INSRR (human)): 97%
kinase still bound, per cent of control (AKT3 (human)): 100%
kinase still bound, per cent of control (IRAK4 (human)): 83%
kinase still bound, per cent of control (AXL (human)): 100%
kinase still bound, per cent of control (MAK (human)): 72%
kinase still bound, per cent of control (STK11 (human)): 96%
kinase still bound, per cent of control [1]: 20%
kinase still bound, per cent of control (SIK2 (human)): 98%
kinase still bound, per cent of control (ROS1 (human)): 12%
kinase still bound, per cent of control (PLK2 (human)): 100%
kinase still bound, per cent of control (PIP5K1C (human)): 96%
kinase still bound, per cent of control (PAK7 (human)): 96%
kinase still bound, per cent of control (FGFR1 (human)): 86%
kinase still bound, per cent of control (RET (human)): 100%
kinase still bound, per cent of control [2]: 100%
kinase still bound, per cent of control (STK10 (human)): 100%
kinase still bound, per cent of control (PRPF4B (human)): 93%
kinase still bound, per cent of control (GAK (human)): 16%
kinase still bound, per cent of control (FLT3 (human)): 100%
kinase still bound, per cent of control (TEC (human)): 100%
kinase still bound, per cent of control (IRAK1 (human)): 100%
kinase still bound, per cent of control (MAPKAPK5 (human)): 97%
kinase still bound, per cent of control (CASK (human)): 85%
kinase still bound, per cent of control (PKN2 (human)): 95%
kinase still bound, per cent of control (MAPK13 (human)): 72%
kinase still bound, per cent of control (MAP3K9 (human)): 93%
kinase still bound, per cent of control (CHEK1 (human)): 100%
kinase still bound, per cent of control (EPHB2 (human)): 100%
kinase still bound, per cent of control (DCLK3 (human)): 90%
kinase still bound, per cent of control (ULK3 (human)): 100%
kinase still bound, per cent of control (VRK2 (human)): 99%
kinase still bound, per cent of control (ULK2 (human)): 67%
kinase still bound, per cent of control (PRKCQ (human)): 100%
kinase still bound, per cent of control (MTOR (human)): 97%
kinase still bound, per cent of control (CAMK2D (human)): 28%
kinase still bound, per cent of control [3]: 89%
kinase still bound, per cent of control (BRSK2 (human)): 64%
kinase still bound, per cent of control (STK36 (human)): 97%
